The values below come from patent US12298308B2, “Neoadjuvant chemotherapy induces breast cancer metastasis through a TMEM-mediated mechanism” (Albert Einstein College of Medicine, priority 2017, dated 2025).

SMILES strings stand for the structures.

One assay has as its system circulating tumor cells. Kind of assay: Circulating tumor cells per mL of blood. Format: in vivo, mouse. As to the method: (§1) Drug Administration. The following drugs were administered in mice: Paclitaxel was given at 10 mg/Kg i.v every 5 days for 2 weeks; Doxorubicin was given at 5 mg/Kg i.v. every 5 days for 2 weeks; Cyclophosphamide was given at 120 mg/Kg i.p. only once; Rebastinib was given at 10 mg/Kg per os, every 3-4 days for 4 weeks.
Circulating Tumor Cells. Mice were anesthetized with 3.5-4.5% isoflurane, and blood was taken from the right ventricle by heart puncture, using 25G needles coated with heparin. Erythrocytes were lysed, using 10 ml of 1×RBC lysis buffer (multi-species, eBioscience). Cancer cells were quantified, as previously described (31, 60).

Assay [1] relates to Tie2^hi/Vegf^hi macrophages. Kind of assay: Macrophage infiltration by multi-channel immunofluorescence (Iba1, Cd31, Tie2, Vegf). It is filed as in vivo, mouse.
From the text: The functional TMEM sites contain Tie2^hi/Vegf^hi macrophages and invasive tumor cells in perivascular regions (1), and it was independently shown that chemotherapy may promote mobilization of such Tie2^hi monocyte progenitors in primary tumors (8, 10). The Tie2^hi/Vegf^hi macrophage subpopulation was quantified herein using multi-channel immunofluorescence (IF) imaging (FIGS. 1D-F) (10, 14, 34). FIG. 1E illustrates a representative IF image of a Tie2^hi/Vegf^hi macrophage quantified using Cd31, Iba1, Vegf and Tie2 staining.
as §1
(§2) Animals and Animal Procedures. MMTV-PyMT mice were bred in-house at the Albert Einstein College of Medicine (AECOM). Generation of MMTV-PyMT Mena^−/− has been described previously (28). CFP- or Dendra2-labeled mammary carcinoma cells were generated on the FVB background by co-injection of Tg(MMTV-iCRE)1jwp together with Tg(PCAG-loxp-CATstop-loxp-CFP) or Tg(loxP-stop-loxP-PDendra2)jwp plasmids, respectively, by conventional methods in the Albert Einstein Transgenic Mouse Facility. All syngeneic transplantation models were generated through orthotopic transplantation of 1 mm×1 mm tumor chunks, using tumors of 1 cm-diameter from 12-16-week old MMTV-PyMT mena−/− or mena+/+ donor mice into 5-6 week-old FVB recipients. Tumor chunks were implanted on the fourth mammary pad on the left side. The generation of the ER^− HT17 and ER^+ HT33 patient-derived xenografts has been described previously (31). Animal handling and associated procedures were approved by the Institutional Animal Care and Use Committee (IACUC). Additional information is detailed in Supplementary Methods.
Immunofluorescence. Slides were deparaffinized by melting at 60° C. in an oven equipped with a fan for 20 minutes, followed by 2× xylene treatment for 20 minutes. Slides were rehydrated and antigen retrieval was done in 1 mM EDTA (pH 8.0) or 1× citrate buffer (pH 6.0) (Diagnostic BioSystems) at 97° C. for 20 minutes in a conventional steamer. Endogenous peroxidase was blocked by using 0.3% hydrogen peroxide in water, followed by incubation of slides in a blocking buffer solution (10% FBS, 1% BSA, 0.0025% fish skin gelatin in 0.05% PBST) for 60 minutes at room temperature. The following primary antibodies were used in different combinations, depending on the experiment: chicken anti-Mena^INV (0.25 ug/mL, generated in-house in the lab of John S. Condeelis), rabbit anti-Cd31 (1:400; 77699s; Cell Signaling), rabbit anti-Vegf (1:2,000; Rb 9031-PO-A; Thermo), rat anti-Tie2 (1:100; 16-5987-82; eBioscience), rabbit anti-Iba1 (1:6,000; 019-19741; Wako), rat anti-endomucin (1:500; sc-65495; Santa Cruz), rabbit anti-TMR (1:1,000; A-6397; Life Technologies). Secondary antibody treatment was performed using HRP-conjugated antibodies, and was followed by tyramide signal amplification (TSA), using the Perkin Elmer; Opal™ 4-color Fluorescent IHC kit, according to the manufacturer's directions. All slides were imaged on the Pannoramic 250 Flash II digital whole slide scanner, using a 20×0.75NA objective lens. Image analysis was performed in ImageJ, detailed in Supplementary Methods.

The test system of the next assay is TMEM. The assay is described as follows: TMEM score by triple-stain immunohistochemistry in mouse breast tumors. Format: in vivo.
From the text: This hypothesis was investigated in the following breast carcinoma models: (i) transgenic MMTV-PyMT mice bearing spontaneous breast tumors, (ii) FVB mice transplanted orthotopically with tumors from MMTV-PyMT donors, and (iii) two patient-derived xenografts (PDX), HT17 and HT33, developed previously in our laboratory (31). […] Treatment of all groups began at the early carcinoma stage (tumor size of ˜0.3 cm) when there is minimal or absent necrosis. It was decided to work with the early-stage PyMT mouse mammary carcinoma model because it more accurately reflects clinically relevant scenarios where most women present with small tumors of <2 cm (32).
as §1, §2
Histology and TMEM Immunohistochemistry. Breast tumors and lungs were isolated, rinsed in PBS, fixed in 10% neutral buffered formalin for 48 hours, dehydrated and embedded in paraffin. Sections (5 μm) were stained with H & E or TMEM triple-stain immunohistochemistry, as previously described (3).

In a further assay the test system is MDA-MB-213 xenografts. Conditions: paclitaxel-treated vs control MDA-MB-213 xenografts; cited from earlier work.
Setting [2] is: single agent vs vehicle, PyMT-transplantation and HT17 xenograft.
[3] abbreviates: Mena^-/- PyMT-CFP transplanted tumors.

In the case of `CC(=O)O[C@H]1C(=O)[C@@]2(C)[C@H]([C@H](OC(=O)c3ccccc3)[C@]3(O)C[C@H](OC(=O)[C@H](O)[C@@H](NC(=O)c4ccccc4)c4ccccc4)C(C)=C1C3(C)C)[C@]1(OC(C)=O)CO[C@@H]1C[C@@H]2O` [paclitaxel], the “number of CTCs in the blood” value in the assay on circulating tumor cells (Mena^-/- PyMT-CFP transplants) is recorded as “failed to boost”. Besides, the “increase in circulating tumor cells (CTCs)” value in the assay with circulating tumor cells (all experimental models examined, p<0.05) is “at least 2 fold”. Moreover, the “number of CTCs (TMEM activity)” value in the assay with circulating tumor cells (setting [2]) is “significant increases”. In assay [1] (HT17-xenograft, entire tissue or perivascular niche, p<0.001), the “absolute number of Iba1^+ cells” value is given as “significantly increased”. In assay [1] (setting [3]), the “perivascular Iba1^+ macrophage infiltration” value is “increased” and the “perivascular Tie2^hi/Vegf^hi Iba1^+ macrophage infiltration” value is “increased”. In assay [1] (PyMT-spontaneous model), the “perivascular Tie2^hi/Vegf^hi macrophage subpopulation” value was “significant increase”. Moreover, the “percentage of macrophage-specific Iba1^+ area” value in assay [1] (all transplantation models, p<0.01) is given as “significant increase”. In addition, the “proportion of Tie2^hi/Vegf^hi macrophages among all Iba1^+ cells” value in assay [1] (paclitaxel treatment) is reported as “increased”. In addition, the “density of perivascular Tie2^hi/Vegf^hi macrophages” value in assay [1] (setting [2]) was “significant increases”. Also, in assay [1] (vs vehicle-treated controls, entire tissue or perivascular niches, p<0.001), the “density of Tie2^hi/Vegf^hi macrophages” value is “significantly higher”. Further, the “TMEM score, fold higher compared to non-treated controls” value with TMEM (all experimental models tested, 10 mg/Kg every five days, three times, p<0.001) is 2- to 3 fold. In the assay with TMEM (setting [2]), the “overall TMEM score (TMEM assembly)” value is reported as “significant increases”. Besides, in the assay on MDA-MB-213 xenografts, the Mena expression result is recorded as “significantly increased” and the “Mena^INV expression” value is on record as “significantly increased”.
